For twelve compounds, pest or weed control, inhibition and melting point results are on record in patent US20140045873A1, “NOVEL MICROBIOCIDES” (SYNGENTA PARTICIPATIONS AG, priority 2010, published 2014).

Data set [1] relates to Phaeosphaeria nodorum (Septoria nodorum). The note with it: Parastagonospora nodorum, in Triticum aestivum, foliar, read-out: control of Phaeosphaeria nodorum (percent disease control compared to untreated).
Data set [2] has as its system Monographella nivalis (Microdochium nivale). As to the kind of experiment: Monographella nivalis (Microdochium nivale) / liquid culture (foot rot cereals). The class given is cell-based. The note with it: PDB, 24° C., 4-5 days after application, read-out: control of Monographella nivalis (inhibition of growth, photometric).
Data set [3] has as its system Glomerella lagenarium (Colletotrichum lagenarium). As to the kind of experiment: Glomerella lagenarium (Colletotrichum lagenarium) / liquid culture (anthracnose). The class given is cell-based. To be noted: Colletotrichum orbiculare; 200 ppm, liquid culture, PDB, 24° C., 3-4 days after application; read-out: control of Glomerella lagenarium (inhibition of growth, photometric).

Data set [4] deals with Mycosphaerella graminicola (Septoria tritici). Briefly: Mycosphaerella graminicola (Septoria tritici) / liquid culture (Septoria blotch). The class given is cell-based. The note with it: Zymoseptoria tritici; 200 ppm, liquid culture, PDB, 24° C., 4-5 days after application; read-out: control of Mycosphaerella graminicola (inhibition of growth, photometric).
Data set [5] relates to Thanatephorus cucumeris (Rhizoctonia solani). To be noted: read-out: control of Thanatephorus cucumeris (inhibition of growth, photometric).
Data set [6] relates to Puccinia recondita f. sp. tritici. To be noted: in Triticum aestivum, foliar, read-out: control of Puccinia recondita f. sp. tritici (percent disease control compared to untreated).
The test system of another data set is Gaeumannomyces graminis. As to the kind of experiment: Gaeumannomyces graminis / liquid culture (take-all of cereals). The note with it: 200 ppm, liquid culture, PDB, 24° C., 4-5 days after application, read-out: control of Gaeumannomyces graminis (inhibition of growth, photometric). The class given is cell-based.
Data set [7] has as its system Botryotinia fuckeliana (Botrytis cinerea). Briefly: Botryotinia fuckeliana (Botrytis cinerea) / liquid culture (gray mould). The class given is cell-based. To be noted: Vogels broth, 24° C., 3-4 days after application, read-out: control of Botryotinia fuckeliana (inhibition of growth, photometric). The text has this: Botryotinia Fuckeliana (Botrytis cinerea)/Liquid Culture (Gray Mould): Conidia of the fungus from cryogenic storage were directly mixed into nutrient broth (Vogels broth). […].45

The next data set concerns Pyrenophora teres. To be noted: in Hordeum vulgare, foliar, read-out: control of Pyrenophora teres (disease control compared to untreated).
The subject of data set [8] is Puccinia recondita f. sp. tritici. To be noted: in Triticum aestivum, foliar, read-out: control of Puccinia recondita f. sp. tritici (percent disease control compared to untreated). The source holds these as a separate data set.
The test system of data set [9] is Mycosphaerella arachidis (Cercospora arachidicola). As to the kind of experiment: Mycosphaerella arachidis (Cercospora arachidicola) / liquid culture (early leaf spot). The class given is cell-based. To be noted: 200 ppm, liquid culture, PDB, 24° C., 4-5 days after application, read-out: control of Mycosphaerella arachidis (inhibition of growth, photometric).
The test system of the next data set is Pythium ultimum. Briefly: Pythium ultimum / liquid culture (seedling damping off). The class given is cell-based. To be noted: Globisporangium ultimum, potato dextrose broth, 24° C., 2-3 days after application, read-out: control of Pythium ultimum (inhibition of growth, photometric).
A further data set has as its system Alternaria solani. As to the kind of experiment: Alternaria solani / tomato / leaf disc (early blight). The note with it: foliar, tomato leaf disks cv. Baby, inoculated 2 days after application, assessed 5-7 days after application, read-out: control of Alternaria solani (percent disease control compared to untreated). The format is in vivo. As to the method:
The inoculated leaf disks were incubated at 23° C./21° C. […].44

A word on the inhibition: it is the relative decrease from the control value, in per cent. The term melting point denotes the temperature of the solid-liquid transition.

SMILES strings stand for the structures. Read-outs that look alike come from different tables or passages of the source.

Consider `COc1cc(C)nc(-c2cccc(CCCO/N=C(\C)c3cccc(C)n3)n2)c1` [P.11, 1-(6-methyl-pyridin-2-yl)-ethanone-O-[3-(4′-methoxy-6′-methyl-[2,2]bipyridinyl-6-yl)-propyl]-oxime], for which the melting point was 84 to 86 °C. For the same compound, the pest or weed control at 200 ppm in data set [1] is at least 80%. Further, in [2], the inhibition at 200 ppm was at least 80%. In addition, the inhibition at 200 ppm in [3] is at least 80%. For the same compound, the inhibition at 200 ppm in [4] is at least 80%. In addition, the inhibition at 200 ppm in [5] was at least 80%. In addition, in data set [6], the pest or weed control at 200 ppm was at least 80%. The inhibition at 200 ppm in the data set with Gaeumannomyces graminis is at least 80%. The inhibition at 200 ppm in [7] is at least 80%. For the same compound, the pest or weed control at 200 ppm in the data set on Pyrenophora teres was at least 80%. Moreover, in data set [8], the pest or weed control at 200 ppm is at least 80%. The inhibition at 200 ppm in [9] is at least 80%.
As to `CCOc1cc(C)nc(-c2cccc(CCCO/N=C(\C)c3cccc(C)n3)n2)c1` [P.12], the pest or weed control at 200 ppm (in data set [1]; in data set [6]; in the data set on Pyrenophora teres; with Alternaria solani; in data set [8]) was at least 80% throughout. For the same compound, the inhibition at 200 ppm (in data set [2]; in data set [3]; in [5]; in the data set with Pythium ultimum; in [7]; in data set [9]) was at least 80% each time.
Take `COc1cc(C)nc(-c2cccc(CCCO/N=C(\C)c3cc(C)cc(C)n3)n2)c1` [P.13]: the pest or weed control at 200 ppm (in [1]; in [6]; in the data set with Pyrenophora teres; in the data set on Alternaria solani; in data set [8]) was at least 80% each time. In addition, the inhibition at 200 ppm (in data set [2]; in data set [3]; in data set [4]; in the data set on Gaeumannomyces graminis; in the data set on Pythium ultimum; in data set [7]) was at least 80% throughout. Besides, the inhibition at 200 ppm in [9] was at least 80%.
In the case of `C/C(=N\OCCCc1cccc(-c2cc(Cl)cc(C)n2)n1)c1cccc(C)n1` [P.16, 1-(6-methyl-pyridin-2-yl)-ethanone-O-[3-(4′-chloro-6′-methyl-[2,2′]bipyridinyl-6-yl)-propyl]-oxime], the melting point was in the range of 53 to 54 °C. The pest or weed control at 200 ppm in [1] was at least 80%. Also, in data set [3], the inhibition at 200 ppm was at least 80%. The inhibition at 200 ppm in data set [4] is at least 80%. Also, the inhibition at 200 ppm in [5] is at least 80%. Also, in data set [6], the pest or weed control at 200 ppm is at least 80%. Besides, in the data set with Gaeumannomyces graminis, the inhibition at 200 ppm was at least 80%. In addition, the inhibition at 200 ppm in [7] is at least 80%. In the data set on Pyrenophora teres, the pest or weed control at 200 ppm was at least 80%. In addition, the pest or weed control at 200 ppm in data set [8] is at least 80%. In data set [9], the inhibition at 200 ppm was at least 80%.
`C/C(=N\OCCCc1cccc(-c2cccc(C)n2)n1)c1cccc(C)n1` [P.21]: the pest or weed control at 200 ppm (in data set [1]; in data set [6]; in the data set with Pyrenophora teres; in the data set on Alternaria solani; in data set [8]) was at least 80% throughout. In addition, the inhibition at 200 ppm (in [3]; in data set [4]; with Gaeumannomyces graminis; in the data set on Pythium ultimum; in data set [7]; in data set [9]) was at least 80% in each case.
Turning to `CON=C(C)c1ccc(-c2cccc(CCCO/N=C(\C)c3cccc(C)n3)n2)nc1C` [P.22], the pest or weed control at 200 ppm (in data set [1]; in [6]; with Pyrenophora teres; in the data set on Alternaria solani; in data set [8]) was at least 80% in each case. Moreover, the inhibition at 200 ppm (in data set [3]; in [4]; in the data set on Gaeumannomyces graminis; in data set [7]; in data set [9]) was at least 80% throughout.
`C/C(=N\OCCCc1cccc(-c2cc(OC(C)C)cc(C)n2)n1)c1cccc(C)n1` [P.27]: the pest or weed control at 200 ppm (in data set [1]; in data set [6]; in the data set on Pyrenophora teres; with Alternaria solani; in data set [8]) was at least 80% throughout. The inhibition at 200 ppm (in data set [2]; in data set [3]; in data set [4]; in data set [5]; with Pythium ultimum; in data set [7]) was at least 80% in each case. In addition, the inhibition at 200 ppm in data set [9] is at least 80%.
As for `C#CCOc1cc(C)nc(-c2cccc(CCCO/N=C(\C)c3cc(C)cc(C)n3)n2)c1` [P.29], the pest or weed control at 200 ppm (in data set [1]; in [6]; in the data set with Pyrenophora teres; with Alternaria solani; in data set [8]) was at least 80% in each case. In addition, the inhibition at 200 ppm (in data set [2]; in data set [3]; in [4]; in data set [5]; in the data set on Gaeumannomyces graminis; in data set [7]) was at least 80% each time. The inhibition at 200 ppm in data set [9] is at least 80%.
Compound `CCc1cc(O)c(C)c(-c2cccc(CCCO/N=C(\C)c3cccc(C)n3)n2)n1` [P.32] came in with a melting point of 128 to 130 °C.
With `CCc1ccc(C)c(-c2cccc(CCCO/N=C(\C)c3cccc(C)n3)n2)n1` [P.42], the pest or weed control at 200 ppm (in data set [1]; in data set [6]; in the data set with Pyrenophora teres; in the data set on Alternaria solani; in [8]) was at least 80% in each case. Besides, the inhibition at 200 ppm (in data set [2]; in data set [3]; in data set [4]; in [5]; in the data set on Gaeumannomyces graminis; in data set [7]) was at least 80% in each case. Besides, the inhibition at 200 ppm in [9] is at least 80%.
For `COc1cc(C)nc(-c2ccc(OC)c(CCCO/N=C(\C)c3cccc(C)n3)n2)c1` [P.43], the pest or weed control at 200 ppm (in [1]; in [6]; in the data set with Pyrenophora teres; in [8]) was at least 80% each time. The inhibition at 200 ppm (in data set [2]; in data set [3]; in data set [4]; in [5]; in the data set on Gaeumannomyces graminis; in the data set on Pythium ultimum) was at least 80% in each case. For the same compound, the inhibition at 200 ppm in data set [7] and in [9] was at least 80% each time.
Consider `COc1cc(C)nc(-c2cccc(CCCO/N=C(\C)c3nc(C)cc(C)n3)n2)c1` [P.44], for which the pest or weed control at 200 ppm (in data set [1]; in [6]; with Pyrenophora teres; in the data set with Alternaria solani; in data set [8]) was at least 80% throughout. Also, the inhibition at 200 ppm (in data set [2]; in data set [3]; in [4]; in data set [5]; with Gaeumannomyces graminis; in the data set on Pythium ultimum) was at least 80% throughout. Besides, the inhibition at 200 ppm in data set [7] and in data set [9] was at least 80% throughout.
